Results from patent US6090955A (priority 1994, dated 2000).

Tests used:
[1] = Tolerability in MaTu-bearing nude mice (toxic deaths, body weight change, hemotoxicity); type: in vivo, Ncr:nu/nu female mice; conditions: i.p., 12.5 mg/kg/inj., treatment d 10-13
Source text: |Animals: Ncr:nu/nu female

P388 cells = conditions: in vitro, free vs liposome-encapsulated vs nanoparticular taxol; cited from earlier work
P388 = conditions: 12.5 mg/kg/4 days; free vs liposomal; cited from earlier work
human glioblastoma = conditions: 12.5 mg/kg/4 days; cited from earlier work
microtubuli = conditions: cited from earlier work
B16 melanoma = conditions: implanted B16 melanoma; cited from earlier work
P388 leukemia = conditions: implanted P388 leukemia; cited from earlier work
human breast tumors = conditions: cited from earlier work
[2] = dilution of Cremophor/alcohol solutions with physiological salt solution; cited from earlier work
[3] = cited from earlier work

Which “BWC (%) d10-13” value [1] does the source give for `CC(=O)O[C@H]1C(=O)[C@@]2(C)[C@H]([C@H](OC(=O)c3ccccc3)[C@]3(O)C[C@H](OC(=O)[C@H](O)[C@@H](NC(=O)c4ccccc4)c4ccccc4)C(C)=C1C3(C)C)[C@]1(OC(C)=O)CO[C@@H]1C[C@@H]2O` [Taxol] here?
Its value is -1%.

And the “Toxic deaths (d): day of death” value ([1]; 8 nude mice)?
Its value is 16 days.

And the “Toxic deaths (d): number” value ([1]; 8 nude mice)?
Its value is 1.

And the “growth inhibition of P388 cells” value (P388 cells)?
The value was “inhibited equally by all three forms of the drug”.

What about the “therapeutic effectiveness on P388 in vivo” value (P388) of the same compound?
Its value is “comparable in their therapeutic effectiveness”.

What about the “decrease in tumor growth” value (human glioblastoma) of the same compound?
Its value is “significant decrease in tumor growth”.

What about the depolymerization of microtubuli (microtubuli) of the same compound?
Its depolymerization of microtubuli is “stabilizes the microtubuli by inhibiting their depolymerization”.

And the “arrangement and bundling of microtubuli” value (microtubuli; during the whole of the cell cycle)?
The value was “abnormal arrangement and bundling of microtubuli”.

And the polymerization of microtubuli (microtubuli; from tubuli dimers)?
Its polymerization of microtubuli is “promotes the polymerization of microtubuli”.

And the antineoplastic activity (B16 melanoma)?
The antineoplastic activity was “clear antineoplastic activity”.

What about the antineoplastic activity (P388 leukemia) of the same compound?
Its antineoplastic activity is “clear antineoplastic activity”.

What about the antineoplastic activity (human breast tumors) of the same compound?
The antineoplastic activity was “clear antineoplastic activity”.

What about the “stability in physiological salt solution” value [2] of the same compound?
The value was “not more than 24 hours”.

With polyethoxylated castor oil [Cremophor] as the compound, how does the “toxicities observed in man” value [3] read?
The value was “increased formation of chylomicrons”.
